We go through eleven molecules from patent US20210380548A1, “Fused [1,2,4]Thiadiazine Derivatives Which Act as KAT Inhibitors of the MYST Family” (CTxT Pty Limited, priority 2017, published 2021).

In experiment [1] the target is T1, MOF-KAT8 (Homo sapiens, UniProt Q9H7Z6).
T1 sequence (Q9H7Z6 177-447): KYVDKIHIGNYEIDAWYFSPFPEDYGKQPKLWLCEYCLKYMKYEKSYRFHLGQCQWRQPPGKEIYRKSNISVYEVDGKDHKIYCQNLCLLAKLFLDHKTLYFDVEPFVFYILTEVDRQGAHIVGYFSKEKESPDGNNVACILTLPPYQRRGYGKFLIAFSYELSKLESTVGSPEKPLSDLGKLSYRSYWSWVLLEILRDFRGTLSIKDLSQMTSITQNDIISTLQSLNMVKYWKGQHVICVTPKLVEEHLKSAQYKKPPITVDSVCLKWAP
Kind of experiment: Acetyltransferase biochemical assay (AlphaScreen), KAT8. The conditions noted are these: Table 4 (MOF-KAT8); 0.4 μM Acetyl coenzyme A, histone H4, 20 nM enzyme.

Experiment [2] concerns the target T2, HBO-KAT7 (Homo sapiens, UniProt O95251).
T2 construct: encoding amino acid residues 325 to 611 (Uniprot 095251-1) of human KAT7; made in house; host or cells: E. coli BL21 DE3 RIL
Kind of experiment: Acetyltransferase biochemical assay (AlphaScreen), KAT7. The settings on record: Table 3 (HBO-KAT7); 0.4 μM Acetyl coenzyme A, histone H3.1, 40 nM enzyme. A general note: In Alpha technology, singlet oxygen from a donor bead excites a nearby acceptor bead.

In experiment [3] the test system is histone H2A.Z Lysine 7 acetylation (TIP60 mediated) in U2OS cells. Nature of the experiment: H2A.Z Lysine 7 Acetylation Biomarker Assay (96 well, U2OS). Format: cell-based. The settings on record: Table 7, H2A.Z K7ac, 24 hours incubation, serum free medium. The method, then:
To discover a global TIP60/KAT5 cellular biomarker useful for monitoring PD responses of TIP60 inhibition in vitro and in vivo, various histone modifications were assessed for TIP60 dependence through genetic (TIP60 siRNA and CRISPR/Cas9) or TIP60 pharmacological inhibition. This analysis clearly identified acetylation of the histone variant H2A.Z at Lysine 7 (H2A.ZK7ac) as a global histone mark which is TIP60-dependent in both human and mouse cells. To a lesser extent, TIP60 also acetylated lysine 4 and 11 of H2A.Z.
Compounds may be tested for their ability to inhibit the histone H2A.Z Lysine 7 acetylation biomarker (which is TIP60 mediated) in the following assay:
(§1) The cell line U2OS was seeded at a density of 9,000 cells per well in 96 well optical quality tissue culture plates in RPMI medium and 10% foetal bovine serum, and allowed to adhere for 24 hours under standard culture conditions (37 degree Celsius, 5% CO2). At the end of this period the cells were washed with serum free medium. Compound dilutions prepared in DMSO were added to the serum free medium, with negative control wells reserved for treatment with DMSO only and positive controls receiving a potent inhibitor compound (e.g. Example 146) at 20 μM concentration. After incubation for 24 hours, the cells were fixed with 3.7% formaldehyde in PBS for 20 minutes at room temperature, washed with phosphate buffer saline containing 0.1% Tween 20 and blocked with Odyssey blocking buffer (LI-COR, Lincoln, Nebr.) containing 0.1% TritonX100. Anti-H2A.Z K7ac specific antibody (Abcam) in Odyssey blocking buffer containing 0.1% Tween 20 was added and incubated for 14 hours at 4 degree Celsius. After washing, a secondary antibody labelled with Alexa647 dye (LifeTechnologies) and Hoechst 33342 (10 μM, SigmaAldrich) were added for 1 hour incubation. Plates were washed and read on a PerkinElmer Phenix high content imaging platform. Using a Columbus image analysis pipeline, individual nuclei were located by Hoechst 33342 stain and the acetylation level was calculated from the Alexa647-related intensity in the same area. The resulting mean intensity per cell was directly converted to percent inhibition relative to controls on the same plate and the data fitted against a four-parameter logistic model to determine the 50% inhibitory concentration (IC50).

Experiment [4] deals with histone H3K14 acetylation (HBO1 mediated) in U2OS cells. Nature of the experiment: Histone H3 Lysine 14 Acetylation Biomarker Assay (96 well, U2OS). The conditions noted are these: Table 6, H3K14ac, 24 hours incubation, serum free medium. Format: cell-based. The method, then:
Compounds may be tested for their ability to inhibit acetylation of the histone H3K14 marker (which is HBO1 mediated) in the following assay:
as §1, with “of 12,000” for “of 9,000”, “Example 36 in WO2016/198507)” for “Example 146)”, “at 10” for “at 20”, “TritonX100. Anti-H3K14ac” for “TritonX100. Anti-H2A.Z K7ac”, “antibody (Cell Signalling Technologies)” for “antibody (Abcam)”, “33342 (1 μg/mL,” for “33342 (10 μM,”

Experiment [5] addresses T3, TIP60-KAT5 (Homo sapiens, UniProt Q92993).
T3 construct: encoding amino acid residues 2 to 461 (Uniprot Q92993-2) of human KAT5 isoform; made in house; host or cells: E. coli BL21 DE3
Nature of the experiment: Acetyltransferase biochemical assay (AlphaScreen), KAT5. The conditions noted are these: Table 1 (TIP60-KAT5); 0.4 μM Acetyl coenzyme A, histone H4, 10 nM enzyme.

The target of experiment [6] is T4, MOZ-KAT6A (Homo sapiens, UniProt Q92794, A567V).
T4 construct: encoding amino acid residues 507 to 778 (Uniprot Q92794-1) of human KAT6A; made in house; host or cells: E. coli BL21 DE3
T4 sequence (Q92794 507-778 A567V limits assumed): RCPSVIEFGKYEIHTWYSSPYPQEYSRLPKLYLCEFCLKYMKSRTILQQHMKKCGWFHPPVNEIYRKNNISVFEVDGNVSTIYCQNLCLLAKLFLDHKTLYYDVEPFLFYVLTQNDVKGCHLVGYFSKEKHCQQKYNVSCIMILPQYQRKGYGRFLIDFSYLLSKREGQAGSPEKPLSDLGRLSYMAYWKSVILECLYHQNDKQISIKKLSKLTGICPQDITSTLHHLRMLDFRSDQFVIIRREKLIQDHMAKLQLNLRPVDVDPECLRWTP
Nature of the experiment: Acetyltransferase biochemical assay (AlphaScreen), KAT6A. The conditions noted are these: Table 2 (MOZ-KAT6A); 10 μM Acetyl coenzyme A, histone H3.1, 5 nM enzyme.

For experiment [7], the target named is T2, HBO-KAT7. Nature of the experiment: Revised Acetyltransferase Biochemical Assay, KAT7. The conditions noted are these: Table 9 (HBO-KAT7), 1 μM Acetyl coenzyme A.
Experiment [8] addresses T4, MOZ-KAT6A. Nature of the experiment: Revised Acetyltransferase Biochemical Assay, KAT6A. The conditions noted are these: Table 8 (MOZ-KAT6A), 1 μM Acetyl coenzyme A.
The target of experiment [9] is T1, MOF-KAT8. Kind of experiment: Revised Acetyltransferase Biochemical Assay, KAT8.
Experiment [10] concerns the target T3, TIP60-KAT5. Nature of the experiment: Revised Acetyltransferase Biochemical Assay, KAT5. The conditions noted are these: 10 nM KAT5, 1 μM AcCoA, 100 nM histone H4, 90 min.
For the next experiment, the target named is T5, QKF-KAT6B (Homo sapiens, UniProt Q8WYB5).
T5 construct: purchased SignalChem K315-381BG
T5 sequence (Q8WYB5 whole entry): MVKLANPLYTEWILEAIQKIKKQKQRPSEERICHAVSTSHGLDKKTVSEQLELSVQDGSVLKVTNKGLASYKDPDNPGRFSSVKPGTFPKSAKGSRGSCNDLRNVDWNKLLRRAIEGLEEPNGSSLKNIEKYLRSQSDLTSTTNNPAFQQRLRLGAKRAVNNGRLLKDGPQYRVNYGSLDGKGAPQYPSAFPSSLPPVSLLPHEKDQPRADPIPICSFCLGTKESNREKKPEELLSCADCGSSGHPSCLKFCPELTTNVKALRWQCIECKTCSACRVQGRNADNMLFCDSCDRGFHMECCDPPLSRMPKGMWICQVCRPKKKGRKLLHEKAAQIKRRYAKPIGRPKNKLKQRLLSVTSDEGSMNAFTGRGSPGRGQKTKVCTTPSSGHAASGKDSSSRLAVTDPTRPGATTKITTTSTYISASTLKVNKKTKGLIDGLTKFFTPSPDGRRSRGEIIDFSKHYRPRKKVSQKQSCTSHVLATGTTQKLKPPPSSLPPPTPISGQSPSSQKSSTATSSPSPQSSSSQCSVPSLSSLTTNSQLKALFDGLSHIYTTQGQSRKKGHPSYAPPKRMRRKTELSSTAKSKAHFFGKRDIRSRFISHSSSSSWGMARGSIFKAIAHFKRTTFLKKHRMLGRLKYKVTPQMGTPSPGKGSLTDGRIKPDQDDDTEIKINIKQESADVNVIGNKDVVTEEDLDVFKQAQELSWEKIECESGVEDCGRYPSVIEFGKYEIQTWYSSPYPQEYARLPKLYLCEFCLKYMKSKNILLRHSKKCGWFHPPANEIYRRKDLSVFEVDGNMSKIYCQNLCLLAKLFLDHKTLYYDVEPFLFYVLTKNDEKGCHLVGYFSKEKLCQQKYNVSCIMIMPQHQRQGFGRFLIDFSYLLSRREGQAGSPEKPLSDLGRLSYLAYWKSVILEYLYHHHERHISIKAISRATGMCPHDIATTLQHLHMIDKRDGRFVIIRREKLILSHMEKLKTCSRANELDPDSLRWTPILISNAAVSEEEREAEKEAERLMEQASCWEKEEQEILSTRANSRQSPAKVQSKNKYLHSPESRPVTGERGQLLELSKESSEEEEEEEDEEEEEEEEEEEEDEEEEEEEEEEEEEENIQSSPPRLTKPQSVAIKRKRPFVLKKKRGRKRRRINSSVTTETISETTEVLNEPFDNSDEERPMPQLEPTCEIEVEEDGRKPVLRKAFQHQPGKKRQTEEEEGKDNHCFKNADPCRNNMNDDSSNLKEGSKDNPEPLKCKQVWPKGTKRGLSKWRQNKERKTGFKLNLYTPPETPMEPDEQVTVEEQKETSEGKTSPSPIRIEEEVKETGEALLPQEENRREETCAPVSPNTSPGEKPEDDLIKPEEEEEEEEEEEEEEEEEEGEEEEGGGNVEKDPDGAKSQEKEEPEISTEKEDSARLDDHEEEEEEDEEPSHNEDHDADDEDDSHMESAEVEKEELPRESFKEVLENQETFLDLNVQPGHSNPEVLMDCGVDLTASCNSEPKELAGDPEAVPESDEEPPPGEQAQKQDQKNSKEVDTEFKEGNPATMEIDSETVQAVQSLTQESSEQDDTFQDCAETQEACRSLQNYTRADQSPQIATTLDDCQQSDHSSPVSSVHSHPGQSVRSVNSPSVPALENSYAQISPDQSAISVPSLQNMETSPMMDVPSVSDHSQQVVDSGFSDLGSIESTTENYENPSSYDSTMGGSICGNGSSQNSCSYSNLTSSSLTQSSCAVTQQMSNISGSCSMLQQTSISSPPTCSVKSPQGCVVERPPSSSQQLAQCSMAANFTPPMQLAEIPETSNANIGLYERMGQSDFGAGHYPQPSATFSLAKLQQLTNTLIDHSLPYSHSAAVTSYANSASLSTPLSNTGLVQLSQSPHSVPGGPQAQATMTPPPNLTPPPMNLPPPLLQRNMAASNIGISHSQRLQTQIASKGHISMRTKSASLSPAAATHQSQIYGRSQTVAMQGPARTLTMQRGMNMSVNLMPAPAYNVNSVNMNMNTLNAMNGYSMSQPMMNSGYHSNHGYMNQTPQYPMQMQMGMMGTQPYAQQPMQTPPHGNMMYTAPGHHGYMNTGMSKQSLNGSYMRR
Kind of experiment: Revised Acetyltransferase Biochemical Assay, KAT6B. The conditions noted are these: 8 nM KAT6B, 1 μM AcCoA, 100 nM histone H3.1, 90 min. From the text: KAT6B was obtained from SignalChem, catalog ID: K315-381BG

Experiment [11] deals with histone H3K23 acetylation (KATE mediated) in U2OS cells. Nature of the experiment: Histone H3 Lysine 23 Acetylation Biomarker Assay (U2OS). Format: cell-based. The settings on record: Homo sapiens, 96 well, 24 hours incubation. Summed up: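 U2OS cells were treated with compound for 24 h, then fixed and immunostained for H3K23ac with Hoechst nuclear counterstain. Per-nucleus Alexa647 intensity was quantified by high-content imaging and converted to % inhibition against DMSO and 10 μM reference-inhibitor controls. IC50 was derived from a four-parameter logistic fit.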

T2 sequence (O95251 with tags, fused parts or gaps): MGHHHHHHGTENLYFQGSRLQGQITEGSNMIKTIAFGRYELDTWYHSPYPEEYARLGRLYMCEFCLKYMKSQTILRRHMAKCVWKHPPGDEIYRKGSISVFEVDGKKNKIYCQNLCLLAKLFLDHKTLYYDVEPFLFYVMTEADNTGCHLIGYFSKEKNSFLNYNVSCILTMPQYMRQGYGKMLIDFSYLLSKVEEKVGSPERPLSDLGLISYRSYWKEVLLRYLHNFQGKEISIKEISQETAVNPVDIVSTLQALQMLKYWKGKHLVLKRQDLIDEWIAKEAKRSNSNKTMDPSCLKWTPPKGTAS
T3 sequence (Q92993 2-461 isoform Q92993-2): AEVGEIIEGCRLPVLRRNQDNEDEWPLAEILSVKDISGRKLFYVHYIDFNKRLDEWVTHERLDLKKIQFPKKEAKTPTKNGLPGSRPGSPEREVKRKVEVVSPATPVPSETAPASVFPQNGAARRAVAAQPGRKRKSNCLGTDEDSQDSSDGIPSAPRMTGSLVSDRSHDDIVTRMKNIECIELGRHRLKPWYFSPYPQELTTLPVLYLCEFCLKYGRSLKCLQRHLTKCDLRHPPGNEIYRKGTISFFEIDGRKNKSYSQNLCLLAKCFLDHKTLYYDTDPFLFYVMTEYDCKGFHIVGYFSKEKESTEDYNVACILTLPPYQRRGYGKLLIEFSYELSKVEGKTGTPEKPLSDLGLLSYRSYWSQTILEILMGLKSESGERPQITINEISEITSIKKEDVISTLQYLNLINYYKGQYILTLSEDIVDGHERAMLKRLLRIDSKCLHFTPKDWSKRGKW

Turning to `O=C(NCC(c1ccccc1)c1ncco1)C1=Nc2ccccc2S(=O)(=O)N1` (single isomer, unassigned) [Example 137], the IC50 (as a rule, the concentration that inhibits the measured activity by half) on MOF-KAT8 [1] was determined as 100000 nM; against HBO-KAT7 [2], 913 nM; in experiment [3] (Homo sapiens), 10000 nM; in experiment [4], 2450 nM; on TIP60-KAT5 [5] it was 3080 nM; against MOZ-KAT6A [6], 107 nM.

With `O=C(NCCc1ccccc1-c1ncco1)C1=Nc2ccc(I)cc2S(=O)(=O)N1` [Example 13, 7-Iodo-N-(2-(oxazol-2-yl)phenethyl)-2H-benzo[e][1,2,4]thiadiazine-3-carboxamide 1,1-dioxide], the IC50 is 981 nM at HBO-KAT7 [2]; 128 nM against HBO-KAT7 [7]; 5780 nM in [3] (Homo sapiens); 727 nM against TIP60-KAT5 [5]; 10 nM against MOZ-KAT6A [8]; 36400 nM on MOF-KAT8 [9]. In addition, the IC50 is 111 nM against TIP60-KAT5 [10] and 229 nM against MOZ-KAT6A [6].

`O=C(NCCc1ccccc1)C1=Nc2ccc(I)cc2S(=O)(=O)N1` [Example 93]: the half-maximal inhibitory concentration (IC50) on HBO-KAT7 [2] was 9590 nM; against HBO-KAT7 [7], 1790 nM; on QKF-KAT6B, 1780 nM; in experiment [4] (Homo sapiens, 24 h), 30000 nM; against TIP60-KAT5 [5], 9200 nM; against MOZ-KAT6A [8], 98 nM. Besides, the IC50 against MOF-KAT8 [9] was greater than 125000 nM; at TIP60-KAT5 [10] it was 2000 nM; at MOZ-KAT6A [6], 2200 nM; in experiment [11], greater than 10000 nM.

`O=C(NCC(O)c1cccc(OCc2ccccc2)c1)C1=Nc2ccc(I)cc2S(=O)(=O)N1` (centres unmarked) [Example 122]: the concentration for half-maximal inhibition (IC50) against HBO-KAT7 [2] was greater than 125000 nM; in experiment [3] (Homo sapiens) it was 10000 nM; against TIP60-KAT5 [5], greater than 125000 nM.

`O=C(NCC(c1ccccc1)n1cccn1)C1=Nc2ccc(Br)cc2S(=O)(=O)N1` (centres unmarked) [Example 84]: the IC50 at MOF-KAT8 [1] was 33300 nM; against HBO-KAT7 [2] it was 83.6 nM; against HBO-KAT7 [7], 62 nM; in experiment [4] (Homo sapiens, 24 h) it was 765 nM; on TIP60-KAT5 [5], 778 nM; against MOZ-KAT6A [8], 17 nM. In addition, the concentration for half-maximal inhibition (IC50) against MOF-KAT8 [9] is 77000 nM; at TIP60-KAT5 [10] it was 426 nM; against MOZ-KAT6A [6], 256 nM.

For the molecule `O=C(NCC(c1ccccc1)c1ncco1)C1=Nc2ccc(O)cc2S(=O)(=O)N1` (centres unmarked) [Example 8, 7-Hydroxy-N-(2-(oxazol-2-yl)-2-phenylethyl)-2H-benzo[e][1,2,4]thiadiazine-3-carboxamide 1,1-dioxide], the IC50 was 1200 nM at HBO-KAT7 [2]; 134 nM against HBO-KAT7 [7]; 210 nM against QKF-KAT6B; 9680 nM in experiment [4] (Homo sapiens, 24 h); 4400 nM on TIP60-KAT5 [5]; 11 nM against MOZ-KAT6A [8]. The results for the IC50 (against MOF-KAT8 [9]; on TIP60-KAT5 [10]; in experiment [11]) were 10500 nM, 2010 nM and 5860 nM, respectively.

Take `O=C(NCC(c1ccccc1)c1ncco1)C1=Nc2ccc(Br)cc2S(=O)(=O)N1` (single isomer, unassigned) [Example 138]: the IC50 at MOF-KAT8 [1] was 8070 nM; on HBO-KAT7 [2], 234 nM; in [3], 1460 nM; in experiment [4], 145 nM; at TIP60-KAT5 [5], 95.2 nM.

As to `O=C(NCC(c1ccccc1)c1ncco1)C1=Nc2ccc(Br)cc2S(=O)(=O)N1` (single isomer, unassigned) [Example 139], the IC50 against MOF-KAT8 [1] is 19100 nM; against HBO-KAT7 [2] it was 61.5 nM; against HBO-KAT7 [7] it was 184 nM; in experiment [3] it was 5050 nM; in [4], 263 nM; against TIP60-KAT5 [5] it was 1300 nM. Further, the IC50 was determined as 100 nM at MOZ-KAT6A [8]; 75800 nM on MOF-KAT8 [9] (read-out: IC50 (MOF-KAT8), Revised acetyltransferase biochemical assay, 20 nM KAT8, 1 μM AcCoA, 100 nM histone H4, 90 min); 707 nM on TIP60-KAT5 [10]; 464 nM against MOZ-KAT6A [6].

Turning to `O=C(NCC(c1ccccc1)c1ncco1)C1=Nc2ccc(F)cc2S(=O)(=O)N1` (centres unmarked) [Example 36, 7-fluoro-N-(2-(oxazol-2-yl)-2-phenylethyl)-2H-benzo[e][1,2,4]thiadiazine-3-carboxamide 1,1-dioxide], the IC50 stood at 538 nM on HBO-KAT7 [2]; 3380 nM against HBO-KAT7 [7]; 724 nM on QKF-KAT6B; 9980 nM in experiment [4] (Homo sapiens, 24 h); 19600 nM against TIP60-KAT5 [5]; 74 nM on MOZ-KAT6A [8]. The figures for the IC50 (against TIP60-KAT5 [10]; against MOZ-KAT6A [6]; in [11]) were 5470 nM, 661 nM and 263 nM, respectively.

Turning to `COC(=O)c1ccccc1CCNC(=O)C1=Nc2ccc(I)cc2S(=O)(=O)N1` [Example 12, Methyl 2-(2-(7-iodo-1,1-dioxido-2H-benzo[e][1,2,4]thiadiazine-3-carboxamido)ethyl)benzoate], the results for the 50% inhibitory concentration (IC50) (against HBO-KAT7 [2]; in [3] (Homo sapiens); at TIP60-KAT5 [5]) were 5870 nM, 26800 nM and 2620 nM, respectively.

Regarding `COc1cccc(CCNC(=O)C2=Nc3ccc(I)cc3S(=O)(=O)N2)c1` [Example 101], the IC50 against HBO-KAT7 [2] is greater than 125000 nM; in [3] (Homo sapiens) it was 30000 nM; in experiment [4] (Homo sapiens, 24 h), 30000 nM; at TIP60-KAT5 [5] it was greater than 125000 nM; against MOZ-KAT6A [6], 10200 nM.
